Data on eight molecules can be found in publication PMC2533354, “Highly specific inhibition of leukaemia virus membrane fusion by interaction of peptide antagonists with a conserved region of the coiled coil of envelope” (Retrovirology, 2008).

SMILES strings stand for the structures. Converted amounts (≈) assume the structure as drawn. Where a SMILES comes first, the peptide text is derived from it.

One series deals with T1, BLV envelope (Bovine leukemia virus, UniProt P51519).
T1 construct: A fragment encompassing the entire BLV envelope open reading frame; expressed in transfected cells; host or cells: HeLa (co-transfected with pRSV-Rev)
T1 sequence (P51519 302-515): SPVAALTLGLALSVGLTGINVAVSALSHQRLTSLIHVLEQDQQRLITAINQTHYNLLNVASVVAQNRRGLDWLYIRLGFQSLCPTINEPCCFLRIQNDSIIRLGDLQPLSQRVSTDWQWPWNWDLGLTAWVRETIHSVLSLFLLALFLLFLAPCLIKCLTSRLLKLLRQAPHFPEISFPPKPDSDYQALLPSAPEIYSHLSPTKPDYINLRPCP
The series is described as follows: Syncytium interference assay, BLV envelope-expressing HeLa effector cells. Type of series: cell-based.

Series [1] in a line: Relative peptide solubility by laser nephelometry. The series is classed as physicochemical. Particulars: filtered PBS with 1.5 % DMSO, maximum solubility in aqueous solution, two-fold serial dilution from DMSO stock, 200 μl, 1 hr at room temperature, laser nephelometry (forward scattered light, NEPHELOstar), duplicate wells, in solution if reading up to 3-fold the DMSO control. How it is done:
A two-fold serial dilution of peptide in DMSO was performed, and added in duplicate to 96-well microplates. Filtered PBS was added to give a total volume of 200 μl and a final DMSO concentration of 1.5 % in all wells. The plates were incubated at room temperature for 1 hr and the relative solubility of peptides was established by measuring forward scattered light using a NEPHELOstar laser-based microplate nephelometer (BMG LABTECH). Wells containing PBS and 1.5 % DMSO only were used as blanks. Data analysis was carried out using ActivityBase, and peptides giving readings up to and including 3-fold higher than the average reading for the DMSO control were considered to be in solution at the concentrations specified.

Series [2] has as its system virally expressed BLV envelope (BLV-infected FLK cells). The conditions noted are these: chronically BLV infected FLK effector cells + HeLa target cells; result in words (Figure 3C).
Method: Briefly, HeLa cells for use as effector cells were transfected with the envelope expression vector pHTE-1 or with equal amounts of pCMV-BLVenv-RRE and pRSV-Rev using the Genejuice™ transfection reagent (Novagen) in accordance with the manufacturer's instructions. 24 h later, 3 × 10^5 effector cells were added to 7 × 10^5 untransfected HeLa target cells in six-well dishes (Nunc). Where appropriate, the co-culture was incubated in the presence of peptides at the concentrations specified. To assess the ability of the peptides to inhibit fusion induced by virally expressed BLV envelope, 2 × 10^5 BLV-infected FLK cells were used as effectors and added to 8 × 10^5 uninfected HeLa cells. After incubation at 37°C for 16 h, cells were washed twice with PBS and fixed in PBS + 3% paraformaldehyde. Assays were performed in triplicate and the number of syncytia (defined as multinucleated cells with 4 or more nuclei) from 10 low-power fields (LPF) per replicate was scored by light microscopy; some assays were stained using Giemsa. A syncytium formation value of 100% is defined as the number of syncytia formed in the absence of peptide but in the presence of 1.5% DMSO.
The mark [3] stands for this setting: up to 20 μM, result in words (Figure 4D).
The mark [4] stands for this setting: result in words, concentration not given (Figures 3B, 4A, 4C).

The term solubility (kinetic) denotes solubility judged after dilution from a stock solution rather than from solid. On to `CC[C@H](C)[C@H](NC(=O)[C@H](CCCNC(=N)N)NC(=O)[C@H](CC(C)C)NC(=O)[C@H](Cc1ccccc1)NC(=O)[C@H](CS)NC(=O)[C@H](CS)NC(C)=O)C(=O)N[C@@H](CCC(N)=O)C(=O)N[C@@H](CC(N)=O)C(=O)N[C@@H](CC(=O)O)C(=O)N[C@@H](CO)C(=O)N[C@H](C(=O)N[C@H](C(=O)N[C@@H](CCCNC(=N)N)C(=O)N[C@@H](C)C(=O)NCC(=O)N[C@@H](CC(=O)O)C(=O)N[C@@H](CC(C)C)C(=O)N[C@@H](CCC(N)=O)C(=O)N1CCC[C@H]1C(=O)N[C@@H](C)C(=O)N[C@@H](CO)C(=O)N[C@@H](CCC(N)=O)C(=O)N[C@@H](CCCNC(=N)N)C(=O)N[C@H](C(=O)N[C@@H](CO)C(=O)N[C@H](C(=O)N[C@@H](CC(=O)O)C(=O)N[C@@H](Cc1c[nH]c2ccccc12)C(=O)N[C@@H](CCC(N)=O)C(N)=O)[C@@H](C)O)C(C)C)[C@@H](C)CC)[C@@H](C)CC` [P^BLV-L404/410A] (Ac-CCFLRIQNDSIIRAGDLQPASQRVSTDWQ-NH2), for which the “Inhibition of BLV Env-induced membrane fusion” value at BLV envelope (setting [3]) is listed as “failed to display any fusion-blocking activity”. Moreover, the kinetic solubility at 1 h in series [1] is > 90 µM.
Taken in the same sequence, the figures for `CC[C@H](C)[C@H](NC(=O)[C@H](CCCNC(=N)N)NC(=O)[C@H](C)NC(=O)[C@H](Cc1ccccc1)NC(=O)[C@H](CS)NC(=O)[C@H](CS)NC(C)=O)C(=O)N[C@@H](CCC(N)=O)C(=O)N[C@@H](CC(N)=O)C(=O)N[C@@H](CC(=O)O)C(=O)N[C@@H](CO)C(=O)N[C@H](C(=O)N[C@H](C(=O)N[C@@H](CCCNC(=N)N)C(=O)N[C@@H](C)C(=O)NCC(=O)N[C@@H](CC(=O)O)C(=O)N[C@@H](C)C(=O)N[C@@H](CCC(N)=O)C(=O)N1CCC[C@H]1C(=O)N[C@@H](C)C(=O)N[C@@H](CO)C(=O)N[C@@H](CCC(N)=O)C(=O)N[C@@H](CCCNC(=N)N)C(=O)N[C@H](C(=O)N[C@@H](CO)C(=O)N[C@H](C(=O)N[C@@H](CC(=O)O)C(=O)N[C@@H](Cc1c[nH]c2ccccc12)C(=O)N[C@@H](CCC(N)=O)C(N)=O)[C@@H](C)O)C(C)C)[C@@H](C)CC)[C@@H](C)CC` [P^BLV-L/A] (Ac-CCFARIQNDSIIRAGDAQPASQRVSTDWQ-NH2) were “did not exhibit any discernible inhibition” and 45 µM (≈ 148 µg/mL).
By inhibition is commonly meant the share of the control response that was lost under treatment. Consider `CC[C@H](C)[C@H](NC(=O)[C@H](CCCNC(=N)N)NC(=O)[C@H](CC(C)C)NC(C)=O)C(=O)N[C@@H](CCC(N)=O)C(=O)N[C@@H](CC(N)=O)C(=O)N[C@@H](CC(=O)O)C(=O)N[C@@H](CO)C(=O)N[C@H](C(=O)N[C@H](C(=O)N[C@@H](CCCNC(=N)N)C(=O)N[C@@H](CC(C)C)C(=O)NCC(=O)N[C@@H](CC(=O)O)C(=O)N[C@@H](CC(C)C)C(=O)N[C@@H](CCC(N)=O)C(=O)N1CCC[C@H]1C(=O)N[C@@H](CC(C)C)C(=O)N[C@@H](CO)C(=O)N[C@@H](CCC(N)=O)C(=O)N[C@@H](CCCNC(=N)N)C(=O)N[C@H](C(=O)N[C@@H](CO)C(=O)N[C@H](C(=O)N[C@@H](CC(=O)O)C(=O)N[C@@H](Cc1c[nH]c2ccccc12)C(=O)N[C@@H](CCC(N)=O)C(N)=O)[C@@H](C)O)C(C)C)[C@@H](C)CC)[C@@H](C)CC` [P^BLV-ΔCCF] (Ac-LRIQNDSIIRLGDLQPLSQRVSTDWQ-NH2), for which, at BLV envelope (HeLa, read-out: Inhibition of syncytium formation), the inhibition at 30 µM turned out to be 40%. At BLV envelope (peptide concentrations below 11 μM, where the peptide is soluble, result in words), the “Inhibition of BLV Env-induced membrane fusion” value is “fails to inhibit membrane fusion”. This molecule also returned a solubility (kinetic) at 1 h in series [1] of 11.2 µM (≈ 34.8 µg/mL).
For the molecule `CC[C@H](C)[C@H](NC(=O)[C@H](CCCNC(=N)N)NC(=O)[C@H](CC(C)C)NC(=O)[C@H](Cc1ccccc1)NC(=O)[C@H](CS)NC(=O)[C@H](CS)NC(C)=O)C(=O)N[C@@H](CCC(N)=O)C(=O)N[C@@H](CC(N)=O)C(=O)N[C@@H](CC(=O)O)C(=O)N[C@@H](CO)C(=O)N[C@H](C(=O)N[C@H](C(=O)N[C@@H](CCCNC(=N)N)C(=O)N[C@@H](CC(C)C)C(=O)NCC(=O)N[C@@H](CC(=O)O)C(=O)N[C@@H](CC(C)C)C(=O)N[C@@H](CCC(N)=O)C(=O)N1CCC[C@H]1C(=O)N[C@@H](CC(C)C)C(N)=O)[C@@H](C)CC)[C@@H](C)CC` [P^BLV-ΔC] (Ac-CCFLRIQNDSIIRLGDLQPL-NH2), the “Inhibition of BLV Env-induced membrane fusion” value on BLV envelope (setting [4]) is given as “lacked detectable inhibitory activity”. For the same molecule, in series [1], the kinetic solubility at 1 h is > 90 µM.
For `CC[C@H](C)[C@H](NC(=O)[C@H](CO)NC(C)=O)C(=O)N[C@H](C(=O)N[C@@H](CCCNC(=N)N)C(=O)N[C@@H](CC(C)C)C(=O)NCC(=O)N[C@@H](CC(=O)O)C(=O)N[C@@H](CC(C)C)C(=O)N[C@@H](CCC(N)=O)C(=O)N1CCC[C@H]1C(=O)N[C@@H](CC(C)C)C(=O)N[C@@H](CO)C(=O)N[C@@H](CCC(N)=O)C(=O)N[C@@H](CCCNC(=N)N)C(=O)N[C@H](C(=O)N[C@@H](CO)C(=O)N[C@H](C(=O)N[C@@H](CC(=O)O)C(=O)N[C@@H](Cc1c[nH]c2ccccc12)C(=O)N[C@@H](CCC(N)=O)C(N)=O)[C@@H](C)O)C(C)C)[C@@H](C)CC` [P^BLV-ΔN] (Ac-SIIRLGDLQPLSQRVSTDWQ-NH2), in that order: “lacked detectable inhibitory activity” and > 90 µM.
For `CC[C@H](C)[C@H](NC(=O)[C@H](CO)NC(=O)[C@@H](NC(=O)[C@H](Cc1c[nH]cn1)NC(=O)[C@H](CO)NC(=O)[C@H](CC(N)=O)NC(=O)[C@@H](NC(=O)[C@@H](NC(=O)[C@H](CC(N)=O)NC(=O)[C@H](C)NC(=O)[C@H](Cc1ccccc1)NC(=O)[C@H](CS)NC(=O)[C@H](CS)NC(C)=O)[C@@H](C)CC)[C@@H](C)O)C(C)C)C(=O)N[C@@H](C)C(=O)N[C@@H](CCC(N)=O)C(=O)N[C@@H](CCC(=O)O)C(=O)N[C@@H](CCCNC(=N)N)C(=O)N1CCC[C@H]1C(=O)N1CCC[C@H]1C(=O)N[C@@H](C)C(=O)N[C@@H](CCC(=O)O)C(=O)N[C@@H](CC(N)=O)C(=O)N[C@@H](CCCNC(=N)N)C(=O)N[C@H](C(=O)N[C@@H](C)C(=O)N[C@H](C(=O)NCC(=O)N[C@@H](Cc1c[nH]c2ccccc12)C(=O)NCC(=O)N[C@@H](C)C(N)=O)[C@@H](C)O)C(C)C` [P^cr-400 L/A, reference compound] (Ac-CCFANITNSHVSIAQERPPAENRVATGWGA-NH2), in that order: “did not interfere” and 45 µM (≈ 146 µg/mL).
Consider `CC[C@H](C)[C@H](NC(=O)[C@H](CO)NC(=O)[C@@H](NC(=O)[C@H](Cc1c[nH]cn1)NC(=O)[C@H](CO)NC(=O)[C@H](CC(N)=O)NC(=O)[C@@H](NC(=O)[C@@H](NC(=O)[C@H](CC(N)=O)NC(=O)[C@H](CC(C)C)NC(=O)[C@H](Cc1ccccc1)NC(=O)[C@H](CS)NC(=O)[C@H](CS)NC(C)=O)[C@@H](C)CC)[C@@H](C)O)C(C)C)C(=O)N[C@@H](CC(C)C)C(=O)N[C@@H](CCC(N)=O)C(=O)N[C@@H](CCC(=O)O)C(=O)N[C@@H](CCCNC(=N)N)C(=O)N1CCC[C@H]1C(=O)N1CCC[C@H]1C(=O)N[C@@H](CC(C)C)C(=O)N[C@@H](CCC(=O)O)C(=O)N[C@@H](CC(N)=O)C(=O)N[C@@H](CCCNC(=N)N)C(=O)N[C@H](C(=O)N[C@@H](CC(C)C)C(=O)N[C@H](C(=O)NCC(=O)N[C@@H](Cc1c[nH]c2ccccc12)C(=O)NCC(=O)N[C@@H](CC(C)C)C(N)=O)[C@@H](C)O)C(C)C` [P^cr-400, reference compound] (Ac-CCFLNITNSHVSILQERPPLENRVLTGWGL-NH2), for which the “Inhibition of membrane fusion induced by virally expressed BLV envelope” value in series [2] is “did not block”. The “Inhibition of membrane fusion induced by BLV envelope” value on BLV envelope (concentrations up to 15 μM and above, result in words) is “failed to inhibit”. The solubility (kinetic) at 1 h in series [1] is > 90 µM.
For `CC[C@H](C)[C@H](NC(=O)[C@H](CC(C)C)NC(=O)[C@H](CO)NC(=O)[C@H](Cc1c[nH]cn1)NC(=O)[C@@H](NC(=O)[C@H](CC(C)C)NC(=O)[C@H](CC(C)C)NC(=O)[C@H](CO)NC(=O)[C@@H](NC(=O)[C@H](Cc1ccc(O)cc1)NC(=O)[C@H](CC(N)=O)NC(=O)[C@H](CC(N)=O)NC(=O)[C@@H](NC(=O)[C@H](CCC(=O)O)NC(=O)[C@H](CCCNC(=N)N)NC(=O)[C@H](CC(=O)O)NC(=O)[C@H](Cc1c[nH]c2ccccc12)NC(=O)[C@H](CCC(=O)O)NC(=O)[C@H](CCSC)NC(=O)[C@H](Cc1c[nH]c2ccccc12)NC(=O)CNC(C)=O)[C@@H](C)CC)[C@@H](C)O)[C@@H](C)CC)C(=O)N[C@@H](CCC(=O)O)C(=O)N[C@@H](CCC(=O)O)C(=O)N[C@@H](CO)C(=O)N[C@@H](CCC(N)=O)C(=O)N[C@@H](CC(N)=O)C(=O)N[C@@H](CCC(N)=O)C(=O)N[C@@H](CCC(N)=O)C(=O)N[C@@H](CCC(=O)O)C(=O)N[C@@H](CCCCN)C(=O)N[C@@H](CC(N)=O)C(=O)N[C@@H](CCC(=O)O)C(=O)N[C@@H](CCC(N)=O)C(=O)N[C@@H](CCC(=O)O)C(=O)N[C@@H](CC(C)C)C(=O)N[C@@H](CC(C)C)C(N)=O` [Peptide C34, reference compound] (Ac-GWMEWDREINNYTSLLIHSLIEESQNQQEKNEQELL-NH2), at BLV envelope (setting [4]), the “Inhibition of BLV Env-induced membrane fusion” value is listed as “did not interfere”. Besides, the solubility (kinetic) at 1 h in series [1] was > 90 µM.
